The text below walks through data of patent US6413959B1, “Method of treating depression with arylglycinamide derivatives” (Boehringer Ingelheim KG, priority 1995, dated 2002).

Each structure is given as a SMILES string. pKi: −log10 of the molar value. Structures can show the parent of a compound that is named as a salt.

T1 sequence (P25103 whole entry): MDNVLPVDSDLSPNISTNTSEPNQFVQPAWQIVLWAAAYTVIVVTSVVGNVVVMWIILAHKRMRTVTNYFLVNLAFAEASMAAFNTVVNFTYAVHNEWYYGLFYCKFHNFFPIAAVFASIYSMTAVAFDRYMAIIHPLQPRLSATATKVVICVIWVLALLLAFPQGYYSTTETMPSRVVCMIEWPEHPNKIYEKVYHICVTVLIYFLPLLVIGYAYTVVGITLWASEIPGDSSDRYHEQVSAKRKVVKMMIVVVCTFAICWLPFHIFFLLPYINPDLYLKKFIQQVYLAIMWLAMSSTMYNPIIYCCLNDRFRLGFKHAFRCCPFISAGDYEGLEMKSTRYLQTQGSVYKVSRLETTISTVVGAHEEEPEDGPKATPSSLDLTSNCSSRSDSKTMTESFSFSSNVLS

One series has as its target T1, NK1-receptor (substance P-receptor) (Homo sapiens, UniProt P25103).
T1 construct: expressed in transfected cells; host or cells: IM-9 human lymphoblastoma cells
Put plainly: NK1-receptor affinity, displacement of 125I-labelled substance P on IM-9 cells. The format is binding. The following applies: human lymphoblastoma cells (IM-9) with cloned NK1-receptors.
For orientation: pKi means the negative decadic logarithm of the Ki, by convention in mol/L. Read a high pKi as a low Ki. Turning to `O=C(NCCc1cc(C(F)(F)F)cc(C(F)(F)F)c1)C(c1ccccc1)N1CCN(C2CCCCC2)CC1` (stereo not drawn) [Example 3], the pKi is 8.85.
In the case of `CN(Cc1cc(C(F)(F)F)cc(C(F)(F)F)c1)C(=O)C(c1ccccc1)N1CCN(C2CCCCC2)CC1` (stereo not drawn) [Example 4], the pKi is 9.00.
Still for that read-out and setting: to `CN(CCc1cc(C(F)(F)F)cc(C(F)(F)F)c1)C(=O)C(c1ccccc1)N1CCC(N2CCCCC2)CC1` (stereo not drawn) [Example 33] belongs 8.89; to `CN(CCc1cc(C(F)(F)F)cc(C(F)(F)F)c1)C(=O)C(c1ccccc1)N1CCC(N2CCCC2)CC1` (stereo not drawn) [Example 45], 8.80; to `CN(CCc1cc(C(F)(F)F)cc(C(F)(F)F)c1)C(=O)C(c1ccccc1)N1CCC(N2CCOCC2)CC1` (stereo not drawn) [Example 46], 8.85.
Still for that read-out and setting: to `CN(CCc1cc(C(F)(F)F)cc(C(F)(F)F)c1)C(=O)C(c1ccccc1)N1CCC(N2CCCC2)CC1` (stereo not drawn) [Example 52] belongs 8.96.
`CN(CCc1cc(C(F)(F)F)cc(C(F)(F)F)c1)C(=O)C(c1ccccc1)N1CCN(C2CCCCCC2)CC1` (stereo not drawn) [Example 53] showed a pKi of 8.64. This pKi is 0.32 log units lower than that of the compound before.
With `CN(CCc1cc(C(F)(F)F)cc(C(F)(F)F)c1)C(=O)C(c1ccc(Cl)c(Cl)c1)N1CCN(C2CCCCC2)CC1` (stereo not drawn) [Example 58], the pKi is 8.19.
Same read-out and setting: to `CN(CCc1cc(C(F)(F)F)cc(C(F)(F)F)c1)C(=O)C(c1ccc(Cl)c(Cl)c1)N1CCC(N2CCCCC2)CC1` (stereo not drawn) [Example 59] belongs 8.38.
In turn, `CN(CCc1cc(C(F)(F)F)cc(C(F)(F)F)c1)C(=O)C(c1ccccc1)N1CCN(CCc2ccccc2)CC1` (stereo not drawn) [Example 65] gave a pKi of 8.04.
In turn, `CN(CCc1cc(C(F)(F)F)cc(C(F)(F)F)c1)C(=O)C(c1ccccc1)N1CCN(CC2CC2)CC1` (stereo not drawn) [Example 66] gave a pKi of 8.85. Compared with the last compound, the pKi is 0.81 log units higher.
Still for that read-out and setting: in the case of `CC(C)N(CCc1cc(C(F)(F)F)cc(C(F)(F)F)c1)C(=O)C(c1ccccc1)N1CCC(N2CCCCC2)CC1` (stereo not drawn) [Example 72] it was 8.17.
The compound `CCN(CCc1cc(C(F)(F)F)cc(C(F)(F)F)c1)C(=O)C(c1ccccc1)N1CCC(N2CCCCC2)CC1` (stereo not drawn) [Example 73] showed a pKi of 8.77.
Still for that read-out and setting: to `CN(CCc1ccc(C(F)(F)F)cc1C(F)(F)F)C(=O)C(c1ccccc1)N1CCC(N2CCCCC2)CC1` (stereo not drawn) [Example 74] belongs 7.93; to `O=C(C(c1ccccc1)N1CCC(N2CCCCC2)CC1)N(CCc1cc(C(F)(F)F)cc(C(F)(F)F)c1)Cc1ccccc1` (stereo not drawn) [Example 76], 8.15.

Test system in a further series: not given
Experiment: not given
Details: not given
In general, melting point refers to the temperature of the solid-liquid transition. On to `O=C(NCc1cc(C(F)(F)F)cc(C(F)(F)F)c1)C(c1ccccc1)N1CCC2(CC1)C(=O)NCN2c1ccccc1` (stereo not drawn), for which the melting point lay within 205 to 210 °C.
On the same count and under the same terms, to `Cl.O=C(NCc1cc(C(F)(F)F)cc(C(F)(F)F)c1)C(c1ccccc1)N1CCC(N2C(=O)CCC2=O)CC1` (stereo not drawn) belongs 110 to 115 °C; to `Cl.O=C(NCc1cc(C(F)(F)F)cc(C(F)(F)F)c1)C(c1ccccc1)N1CCC(N(C(=O)c2ccccc2)c2ccccn2)CC1` (stereo not drawn), 145 to 151 °C.
Still for that read-out and setting: to `Cc1nc2ccccc2n1C1CCN(C(C(=O)NCc2cc(C(F)(F)F)cc(C(F)(F)F)c2)c2ccccc2)CC1` (stereo not drawn) belongs 107 to 111 °C; to `CN(CCc1cc(C(F)(F)F)cc(C(F)(F)F)c1)C(=O)C(c1ccccc1)N1CCC(C(N)=O)(c2ccccc2)CC1.Cl` (stereo not drawn), 127 to 137 °C; to `CN(CCc1cc(C(F)(F)F)cc(C(F)(F)F)c1)C(=O)C(c1ccccc1)N1CCC(c2ccccc2)CC1.Cl` (stereo not drawn), 106 to 110 °C.
The same measure, in the same setting: to `CN(CCc1cc(C(F)(F)F)cc(C(F)(F)F)c1)C(=O)C(c1ccccc1)N1CCC2(CC1)C(=O)NCN2c1ccccc1` (stereo not drawn) belongs 265 to 268 °C (dec.); to `CN(CCc1cc(C(F)(F)F)cc(C(F)(F)F)c1)C(=O)C(c1ccccc1)N1CCC(n2c(=O)[nH]c3ccccc32)CC1` (stereo not drawn), 177 to 187 °C; to `O=C(NCc1cc(C(F)(F)F)cc(C(F)(F)F)c1)C(c1ccccc1)N1CCC(N(C(=O)c2ccccc2)c2ccccc2)CC1` (stereo not drawn), 102 to 105 °C.
For `CN(CCc1cc(C(F)(F)F)cc(C(F)(F)F)c1)C(=O)C(c1ccccc1)N1CCC(N2CCCCC2)CC1` (stereo not drawn) (as salt: hydrochloride) [Example 33], the melting point is > 240 °C.
In turn, `O=C(NCc1cc(C(F)(F)F)cc(C(F)(F)F)c1)C(c1ccccc1)N1CCN(C2CCCCC2)CC1` (racemic) [Example 1, (R,S)-1-cyclohexyl-piperazinyl-4-[2-phenylacetic acid-N-(3,5-bis-trifluoromethylbenzyl)amide]] registered a melting point of 124 to 129 °C.
Take `CCC(=O)NC1CCN(C(C(=O)NCc2cc(C(F)(F)F)cc(C(F)(F)F)c2)c2ccccc2)CC1` (racemic) [Example 2, (R,S)-4-propionylamino-1-[2-phenylacetic acid-N(3,5-bis-trifluoromethyl-benzyl)-amide]-piperidine]: the melting point is 189 to 191 °C.
The same measure, in the same setting: in the case of `O=C(NCCc1cc(C(F)(F)F)cc(C(F)(F)F)c1)C(c1ccccc1)N1CCN(C2CCCCC2)CC1` (stereo not drawn) [Example 3] it was 235 to 238 °C.
Still for that read-out and setting: to `CN(Cc1cc(C(F)(F)F)cc(C(F)(F)F)c1)C(=O)C(c1ccccc1)N1CCN(C2CCCCC2)CC1` (stereo not drawn) [Example 4] belongs > 240 °C (dec.); to `O=C(NCc1cc(C(F)(F)F)cc(C(F)(F)F)c1)C(c1ccccc1)N1CCN(CCC2CCCCC2)CC1` (stereo not drawn) [Example 6], 97 to 99 °C.
Regarding `O=C(NCc1cc(C(F)(F)F)cc(C(F)(F)F)c1)C(c1ccccc1)N1CCC(N2CCCCC2)CC1` (stereo not drawn) [Example 7], the melting point was > 240 °C (dec.).
The same measure, in the same setting: to `O=C(Nc1ccccc1)NC1CCN(C(C(=O)NCc2cc(C(F)(F)F)cc(C(F)(F)F)c2)c2ccccc2)CC1` (stereo not drawn) [Example 10] belongs 218 to 223 °C; to `NC(=O)C1(N2CCCCC2)CCN(C(C(=O)NCc2cc(C(F)(F)F)cc(C(F)(F)F)c2)c2ccccc2)CC1` (stereo not drawn) [Example 11], > 220 °C (dec.); to `CC(=O)N1CCN(C2CCN(C(C(=O)NCc3cc(C(F)(F)F)cc(C(F)(F)F)c3)c3ccccc3)CC2)C1=O` (stereo not drawn) [Example 13], 87 to 95 °C.
In turn, `O=C(NCc1cc(C(F)(F)F)cc(C(F)(F)F)c1)C(c1ccccc1)N1CCC(Nc2ccccn2)CC1` (stereo not drawn) [Example 14] gave a melting point of 164 to 166 °C.
Take `O=C(NCc1cc(C(F)(F)F)cc(C(F)(F)F)c1)C(c1ccccc1)N1CCC(n2c(=O)[nH]c3cccnc32)CC1` (stereo not drawn) [Example 15]: the melting point was 208 to 210 °C.
On the same count and under the same terms, in the case of `O=C(NCCCc1ccc(C(F)(F)F)cc1C(F)(F)F)C(c1ccccc1)N1CCN(C2CCCCC2)CC1` (stereo not drawn) [Example 17] it was 118 to 123 °C; in that of `O=C(NCc1cc(C(F)(F)F)cc(C(F)(F)F)c1)C(c1ccccc1)N1CCN(CCC2CC2)CC1` (stereo not drawn) [Example 18], 134 to 136 °C.
The same measure, in the same setting: to `O=C(Nc1ccccc1)C1CCN(C(C(=O)NCc2cc(C(F)(F)F)cc(C(F)(F)F)c2)c2ccccc2)CC1` (stereo not drawn) [Example 19] belongs > 240 °C (dec.).
On the same count and under the same terms, to `O=C(NC1CCN(C(C(=O)NCc2cc(C(F)(F)F)cc(C(F)(F)F)c2)c2ccccc2)CC1)c1ccccc1` (stereo not drawn) [Example 20] belongs 180 to 185 °C; to `O=C(NCc1cc(C(F)(F)F)cc(C(F)(F)F)c1)C(c1ccc(Br)cc1)N1CCN(C2CCCCC2)CC1` (stereo not drawn) [Example 21], 228 to 232 °C.
`O=C(O)CN(Cc1cc(C(F)(F)F)cc(C(F)(F)F)c1)C(=O)C(c1ccccc1)N1CCN(C2CCCCC2)CC1` (stereo not drawn) [Example 22] had a melting point of 70 to 73 °C.
On the same count and under the same terms, to `O=C(NCc1cc(C(F)(F)F)cc(C(F)(F)F)c1)C(c1ccc(Cl)c(Cl)c1)N1CCN(C2CCCCC2)CC1` (stereo not drawn) [Example 23] belongs 248 to 254 °C.
Still for that read-out and setting: to `O=C(NCc1cc(C(F)(F)F)cc(C(F)(F)F)c1)C(c1cc(C(F)(F)F)cc(C(F)(F)F)c1)N1CCN(C2CCCCC2)CC1` (stereo not drawn) [Example 24] belongs 210 °C; to `O=C(NCCc1cc(C(F)(F)F)cc(C(F)(F)F)c1)C(c1ccccc1)N1CCC(N2CCCCC2)CC1` (stereo not drawn) [Example 25], 192 to 199 °C; to `O=C(NCc1cc(C(F)(F)F)cc(C(F)(F)F)c1)C(c1ccc(Cl)cc1)N1CCN(C2CCCCC2)CC1` (stereo not drawn) [Example 26], 112 to 118 °C.
As for `O=C(NCc1cc(C(F)(F)F)cc(C(F)(F)F)c1)C(c1cccc(Br)c1)N1CCN(C2CCCCC2)CC1` (stereo not drawn) [Example 27], the melting point was in the range of 124 to 127 °C.
Same read-out and setting: in the case of `O=C(NCc1cc(C(F)(F)F)cc(C(F)(F)F)c1)C(c1ccccc1Br)N1CCN(C2CCCCC2)CC1` (stereo not drawn) [Example 28] it was 118 to 120 °C.
`O=C(NCc1cc(C(F)(F)F)cc(C(F)(F)F)c1)C(c1ccccc1Cl)N1CCN(C2CCCCC2)CC1` (stereo not drawn) [Example 29] had a melting point of 120 to 122 °C.
On the same count and under the same terms, in the case of `O=C(NCc1cc(C(F)(F)F)cc(C(F)(F)F)c1)C(c1cccc(Cl)c1)N1CCN(C2CCCCC2)CC1` (stereo not drawn) [Example 30] it was > 240 °C.
The same measure, in the same setting: to `O=C(NCc1cc(C(F)(F)F)cc(C(F)(F)F)c1)C(c1ccc(F)cc1)N1CCN(C2CCCCC2)CC1` (stereo not drawn) [Example 31] belongs > 240 °C; to `O=C(NCCc1cc(C(F)(F)F)cc(C(F)(F)F)c1)C(c1cccc2ccccc12)N1CCN(C2CCCCC2)CC1` (stereo not drawn) [Example 38], 155 to 172 °C.
Same read-out and setting: to `COc1ccccc1C(C(=O)NCc1cc(C(F)(F)F)cc(C(F)(F)F)c1)N1CCN(C2CCCCC2)CC1` (stereo not drawn) [Example 42] belongs 142 to 150 °C; to `CN(CCc1cc(C(F)(F)F)cc(C(F)(F)F)c1)C(=O)C(c1ccccc1)N1CCC(N2CCCC2)CC1` (stereo not drawn) [Example 52], 133 to 143 °C.
Take `CN(CCc1cc(C(F)(F)F)cc(C(F)(F)F)c1)C(=O)C(c1ccccc1)N1CCN(C2CCCCCC2)CC1` (stereo not drawn) [Example 53]: the melting point was 110 to 120 °C.
As for `CN(CCc1cc(C(F)(F)F)cc(C(F)(F)F)c1)C(=O)C(c1ccc(Cl)c(Cl)c1)N1CCN(C2CCCCC2)CC1` (stereo not drawn) [Example 58], the melting point is 212 to 216 °C (dec.).
Take `CN(CCc1cc(C(F)(F)F)cc(C(F)(F)F)c1)C(=O)C(c1ccc(Cl)c(Cl)c1)N1CCC(N2CCCCC2)CC1` (stereo not drawn) [Example 59]: the melting point was 244 to 246 °C (dec.).
The compound `CN(CCc1cc(C(F)(F)F)cc(C(F)(F)F)c1)C(=O)C(c1ccccc1)N1CCN(c2ccccc2)CC1` (stereo not drawn) [Example 60] had a melting point of 113 to 123 °C.
Regarding `O=C(NCCc1cc(C(F)(F)F)cc(C(F)(F)F)c1)C(c1ccccc1Br)N1CCN(C2CCCCC2)CC1` (stereo not drawn) [Example 62], the melting point lay within 210 to 218 °C.
On the same count and under the same terms, in the case of `O=C(NCCc1cc(C(F)(F)F)cc(C(F)(F)F)c1)C(c1ccccc1Cl)N1CCN(C2CCCCC2)CC1` (stereo not drawn) [Example 63] it was 215 to 224 °C; in that of `COc1ccccc1C(C(=O)NCCc1cc(C(F)(F)F)cc(C(F)(F)F)c1)N1CCN(C2CCCCC2)CC1` (stereo not drawn) [Example 64], 85 to 92 °C; in that of `CN(CCc1cc(C(F)(F)F)cc(C(F)(F)F)c1)C(=O)C(c1ccccc1)N1CCN(CCc2ccccc2)CC1` (stereo not drawn) [Example 65], 148 to 156 °C.
As for `CN(CCc1cc(C(F)(F)F)cc(C(F)(F)F)c1)C(=O)C(c1ccccc1)N1CCN(CC2CC2)CC1` (stereo not drawn) [Example 66], the melting point was 113 to 117 °C (dec.).
